{
  "source": "the supplement of paper PMC3770661",
  "tested_on": "HepG2 (L1.3 5'UTR promoter firefly luciferase reporter)",
  "experiment": "L1 promoter activity (FLuc/RLuc) relative to DMSO vehicle control (% of control); higher = stronger L1 promoter activation",
  "key": {"[1]": {"settings": "concentration (uM unless unit written): 500, treatment time: 6 h"}, "[2]": {"settings": "concentration (uM unless unit written): 500, treatment time: 24 h"}},
  "note": "± gives the uncertainty stated by the source.",
  "data": [
    {"smiles": "CC(=O)N[C@H]1[C@@H](O[C@@H]2O[C@H](CC(O)[C@H]3O[C@@H](n4ccc(=O)[nH]c4=O)[C@H](O)[C@@H]3O)[C@H](O)[C@H](O)[C@H]2NC(=O)/C=C/CC(C)C)O[C@H](CO)[C@@H](N)[C@@H]1O", "note": "(some centres not stated) [Tunicamycin]", "values": [
      {"measurement": "L1 promoter activity", "setting": "concentration (uM unless unit written): 5 μg/mL, treatment time: 6 h", "result": "76.6 ± 8.1"},
      {"measurement": "L1 promoter activity", "setting": "concentration (uM unless unit written): 5 μg/mL, treatment time: 24 h", "result": "73.3 ± 3.2"},
      {"measurement": "L1 promoter activity", "setting": "concentration (uM unless unit written): 10 μg/mL, treatment time: 6 h", "result": "66.6 ± 7.3"},
      {"measurement": "L1 promoter activity", "setting": "concentration (uM unless unit written): 10 μg/mL, treatment time: 24 h", "result": "84.5 ± 11"},
      {"measurement": "L1 promoter activity", "setting": "concentration (uM unless unit written): 20 μg/mL, treatment time: 6 h", "result": "63.5 ± 3.2"},
      {"measurement": "L1 promoter activity", "setting": "concentration (uM unless unit written): 20 μg/mL, treatment time: 24 h", "result": "72.1 ± 7.7"},
      {"measurement": "L1 promoter activity", "setting": "concentration (uM unless unit written): 40 μg/mL, treatment time: 24 h", "result": "75.8 ± 6.2"}
    ]},
    {"smiles": "CC(=O)O[C@H]1C(=O)[C@@]2(C)[C@H]([C@H](OC(=O)c3ccccc3)[C@]3(O)C[C@H](OC(=O)[C@H](O)[C@@H](NC(=O)c4ccccc4)c4ccccc4)C(C)=C1C3(C)C)[C@]1(OC(C)=O)CO[C@@H]1C[C@@H]2O", "note": "[Taxol]", "values": [
      {"measurement": "L1 promoter activity", "setting": "concentration (uM unless unit written): 5, treatment time: 6 h", "result": "104 ± 17"},
      {"measurement": "L1 promoter activity", "setting": "concentration (uM unless unit written): 5, treatment time: 24 h", "result": "86.9 ± 18"},
      {"measurement": "L1 promoter activity", "setting": "concentration (uM unless unit written): 10, treatment time: 6 h", "result": "123 ± 35"},
      {"measurement": "L1 promoter activity", "setting": "concentration (uM unless unit written): 10, treatment time: 24 h", "result": "81.9 ± 11"},
      {"measurement": "L1 promoter activity", "setting": "concentration (uM unless unit written): 20, treatment time: 6 h", "result": "96.8 ± 14"},
      {"measurement": "L1 promoter activity", "setting": "concentration (uM unless unit written): 20, treatment time: 24 h", "result": "76.3 ± 13"}
    ]},
    {"smiles": "CC(C)Cc1ccc(C(C)C(=O)O)cc1", "note": "(configuration not stated) [Ibuprofen]", "values": [
      {"measurement": "L1 promoter activity", "setting": "concentration (uM unless unit written): 250, treatment time: 6 h", "result": "118 ± 8.4"},
      {"measurement": "L1 promoter activity", "setting": "concentration (uM unless unit written): 250, treatment time: 24 h", "result": "90.8 ± 3.5"},
      {"measurement": "L1 promoter activity", "setting": "[1]", "result": "99.7 ± 9.8"},
      {"measurement": "L1 promoter activity", "setting": "[2]", "result": "89.6 ± 10"},
      {"measurement": "L1 promoter activity", "setting": "concentration (uM unless unit written): 1000, treatment time: 6 h", "result": "97.2 ± 8.2"},
      {"measurement": "L1 promoter activity", "setting": "concentration (uM unless unit written): 1000, treatment time: 24 h", "result": "74.9 ± 7.6"}
    ]},
    {"smiles": "CC[C@H](C)C(=O)O[C@H]1CCC=C2C=C[C@H](C)[C@H](CC[C@@H]3C[C@@H](O)CC(=O)O3)[C@H]21", "note": "[Mevastatin]", "values": [
      {"measurement": "L1 promoter activity", "setting": "concentration (uM unless unit written): 1, treatment time: 6 h", "result": "114 ± 22"},
      {"measurement": "L1 promoter activity", "setting": "concentration (uM unless unit written): 1, treatment time: 24 h", "result": "118 ± 31"},
      {"measurement": "L1 promoter activity", "setting": "concentration (uM unless unit written): 3, treatment time: 6 h", "result": "101 ± 24"},
      {"measurement": "L1 promoter activity", "setting": "concentration (uM unless unit written): 3, treatment time: 24 h", "result": "105 ± 12"},
      {"measurement": "L1 promoter activity", "setting": "concentration (uM unless unit written): 6, treatment time: 6 h", "result": "123 ± 43"},
      {"measurement": "L1 promoter activity", "setting": "concentration (uM unless unit written): 6, treatment time: 24 h", "result": "103 ± 18"}
    ]},
    {"smiles": "Cc1cc(CC(=O)O)n(C)c1C(=O)c1ccc(Cl)cc1", "note": "[Zomepirac]", "values": [
      {"measurement": "L1 promoter activity", "setting": "[1]", "result": "102 ± 9.6"},
      {"measurement": "L1 promoter activity", "setting": "[2]", "result": "86.3 ± 6.3"}
    ]}
  ]
}
